Like-named read-outs stand apart in the source and are kept apart here.
How the values were obtained:
DC-3F/ADX = test: cells; type: cell-based, hamster
Outline: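 Cell protein content measured by sulforhodamine B staining after trichloroacetic acid fixation, read at 570 nm; duplicate runs of six to seven concentrations fitted by median-effect analysis. Lines are actinomycin D-resistant DC-3F hamster lung sublines (ADII, ADX), kept under selecting drug in RPMI 1640-10% FBS.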

murine leukemic P388/0 = test: XTT cytotoxicity, P388/0; type: cell-based
Outline: (§1)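 Duplicate 72 h cultures at 5×10^4 cells/mL, 37 °C, 5% CO2; then XTT plus PMS for 4 h; dual-wavelength read at 450/630 nm. Resistant sublines held under their selecting agents.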

[1] = test system: Human CCRF-CEM/VBL Xenograft; test: CCRF-CEM/VBL xenograft in scid mice; type: in vivo, CB-17 scid mice
[2] = test system: CCRF-CEM human T-cell acute lymphoblastic leukemia cell line; test: XTT cytotoxicity (cell growth inhibition), CCRF-CEM
Outline: as §1

P388/Adr = test: cells; type: cell-based, murine; settings: for IC50: 72 h
Outline: as §1

CCRF-CEM/VM1 = test: cells; type: cell-based, human
Outline: as §1

MCF-7 = test: SRB cytotoxicity, MCF-7; type: cell-based, human
Outline: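 Monolayer MCF-7 cultures exposed to six to seven drug concentrations in duplicate, then fixed with trichloroacetic acid and stained 30 min with 0.4% sulforhodamine B. Bound dye extracted with unbuffered Tris base, absorbance read at 570 nm; values derived by median-effect plot analysis.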

SK-N-FI = test: cells; type: cell-based, human; settings: for IC50: 72 h
Outline: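 Cellular protein content measured with sulforhodamine B after trichloroacetic acid fixation, read at 570 nm. Each duplicate run used six to seven concentrations, analysed by the median-effect method. Cells were cultured at 37 °C, 5% CO2 in RPMI 1640-10% FBS, and drug-resistant lines were maintained with their selecting agent.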

[3] = test system: A549 Human Lung Carcinoma; test: A549 xenograft; type: in vivo, nude mice; settings: for Average Tumor Size, Day 11: control 96; for Average Tumor Size, Day 13: control 128; for Average Tumor Size, Day 15: control 306; for Average Tumor Size, Day 17: control 553; for Average Body Weight, Day 7: initial weight
[4] = test system: PC-3 Human Prostate Carcinoma; test: PC-3 xenograft; type: in vivo, nude mice; settings: for Average Body Weight, Day 5: initial weight
[5] = Table 1C, SRB, 72 h, read-out: IC50
[6] = dose 0.7 i.p. QD d7-10,14,15, day 12
[7] = dose 0.7 i.p. QD d7-10,14,15, day 17
[8] = dose 0.7 i.p. QD d7-10,14,15, day 22
[9] = dose 1.0 i.p. QD d7-10,14,15, day 12
[10] = dose 1.0 i.p. QD d7-10,14,15, day 17
[11] = dose 1.0 i.p. QD d7-10,14,15, day 22
[12] = dose 2.0 i.p. QD d7-10,14,15, day 12
[13] = dose 2.0 i.p. QD d7-10,14,15, day 17
[14] = dose 2.0 i.p. QD d7-10,14,15, day 22
[15] = dose 4.0 i.p. QD d7-10,14,15, day 12
[16] = dose 4.0 i.p. QD d7-10,14,15, day 17
[17] = dose 4.0 i.p. QD d7-10,14,15, day 22
[18] = A549 Lung, dEpoB 40 mg/kg Q2D x 3, Taxol 15 mg/kg Q2D x 3
[19] = Q2D x 3, 6 hr i.v. infusion: dEpoB 40, Taxol 24 mg/kg
[20] = Q2D x 3: dEpoB 30 mg/kg 18 hr i.v. infusion, Taxol 15 mg/kg 6 hr infusion, VBL 2 and VP-16 25 mg/kg i.v. inj
[21] = Homo sapiens, CCRF-CEM, 72 h, Table 1A, XTT
[22] = Homo sapiens, CCRF-CEM, Table 1, XTT
[23] = Homo sapiens, CCRF-CEM, Table 5, single determinations
[24] = 6 hr i.v. infusion: dEpoB 40, Taxol 24 mg/kg
[25] = PC-3 Prostate, dEpoB 40 mg/kg Q2D x 3, Taxol 15 mg/kg Q2D x 3
[26] = dEpoB 30 mg/kg 18 hr i.v. infusion, Taxol 16 mg/kg 6 hr infusion, VBL 2 and VP-16 25 mg/kg i.v. inj

C/C(=C\c1csc(C)n1)[C@@H]1C[C@@H]2O[C@]2(C)CCC[C@H](C)[C@H](O)[C@@H](C)C(=O)C(C)(C)[C@@H](O)CC(=O)O1 [Epothilone B, epothilone B]
fold resistance vs parent DC-3F (DC-3F/ADX; DC-3F/ADX cells, listed as EpoB): 28 fold
folds of resistance (IC50 ratio vs parent cell line) (DC-3F/ADX; Table 1C, DC-3F/ADX vs DC-3F): (28x)
IC50 (DC-3F/ADX; [5]): 17 nM
IC50 (murine leukemic P388/0; Table 1C, XTT, 72 h, read-out: IC50): 0.29 nM
mice died of drug toxicity ([1]; Epo B dose 1.0 i.p., 7 mice, day 17): ^6.One mouse died of drug toxicity on day 17.
Average weight change ([1]; dose 0.7 i.p. QD d7-10,14,15, day 7): +0.1
Average tumor volume (control = 1.00) [1, 6]: 0.32
Average weight change [1, 6]: −0.7
Average tumor volume (control = 1.00) [1, 7]: 0.40
Average weight change [1, 7]: −1.0
Average tumor volume (control = 1.00) [1, 8]: 0.33
Average weight change [1, 8]: −0.2
Average weight change ([1]; dose 1.0 i.p. QD d7-10,14,15, day 7): −0.2
Average tumor volume (control = 1.00) [1, 9]: 0.41
Average weight change [1, 9]: −1.3
Average tumor volume (control = 1.00) [1, 10]: 0.27
Average weight change [1, 10]: −2.1
Average tumor volume (control = 1.00) [1, 11]: 0.31
Average weight change [1, 11]: −0.5
IC50 [2]: 0.35 nM
fold more potent than Epo A ([2]; CCRF-CEM cells): 6 fold
fold more potent than Taxol ([2]; CCRF-CEM cells): 10 fold
Rel. Value (potency relative to Epo B) ([2]; CCRF-CEM leukemic cells): 1
IC50 ([2]; Table 1, XTT): 0.4 nM
folds of resistance (IC50 ratio vs parent cell line) (P388/Adr; Table 1C, P388/Adr vs P388/O): (5.5x)
IC50 (P388/Adr; Table 1C, XTT, read-out: IC50): 1.6 nM
IC50 (CCRF-CEM/VM1; Table 1, XTT, read-out: IC50): 2 nM
(D)/(A) IC50 ratio (CCRF-CEM/VM1; Table 1A, CCRF-CEM/VM1 vs CCRF-CEM): 3.6
IC50 (CCRF-CEM/VM1; Table 1A, XTT, 72 h, read-out: IC50): 1.3 nM
IC50 (MCF-7; [5]): 0.5 nM
fold resistance vs parent SK-N-As (SK-N-FI; SK-N-F1 cells): 25 fold
folds of resistance (IC50 ratio vs parent cell line) (SK-N-FI; Table 1C, SK-N-FI vs SK-N-As): (25x)
IC50 (SK-N-FI; Table 1C, SRB, read-out: IC50): 10 nM

CC(=O)O[C@H]1C(=O)[C@@]2(C)[C@H]([C@H](OC(=O)c3ccccc3)[C@]3(O)C[C@H](OC(=O)[C@H](O)[C@@H](NC(=O)c4ccccc4)c4ccccc4)C(C)=C1C3(C)C)[C@]1(OC(C)=O)CO[C@@H]1C[C@@H]2O [Taxol ®, paclitaxel]
IC50 (DC-3F/ADX; DC3F/ADX, 72 h, Table 1C, SRB): 32000 nM
IC50 (DC-3F/ADX; DC3F/ADX, Table 3): 32000 nM
IC50 (DC-3F/ADX; DC3F/ADX, relative potency ordering): 32000 nM
IC50 (murine leukemic P388/0; Mus musculus, P388, 72 h): 2.9 nM
Average weight change ([1]; dose 2.0 i.p. QD d7-10,14,15, day 7): 0
Average tumor volume (control = 1.00) [1, 12]: 0.60
Average weight change [1, 12]: −0.9
Average tumor volume (control = 1.00) [1, 13]: 0.58
Average weight change [1, 13]: −1.5
Average tumor volume (control = 1.00) [1, 14]: 0.70
Average weight change [1, 14]: −0.1
Average weight change ([1]; dose 4.0 i.p. QD d7-10,14,15, day 7): 0
Average tumor volume (control = 1.00) [1, 15]: 0.79
Average weight change [1, 15]: −1.4
Average tumor volume (control = 1.00) [1, 16]: 0.55
Average weight change [1, 16]: −1.6
Average tumor volume (control = 1.00) [1, 17]: 0.41
Average weight change [1, 17]: −0.9
Lowest Average Tumor Size (T/C) [3, 18]: 0.01 T/C
Tumor Disappearance [3, 18]: 2/4
Average Body Weight (change), Day 11 [3, 19]: -2.1 g
Average Body Weight (change), Day 13 [3, 19]: -2.7 g
Average Body Weight (change), Day 15 [3, 19]: -0.9 g
Tumor Disappearance [3, 19]: 4/4
Average Tumor Size, Day 11 [3, 19]: 14 mm^3
Average Tumor Size, Day 13 [3, 19]: 8 mm^3
Average Tumor Size, Day 15 [3, 19]: 0 mm^3
Average Tumor Size, Day 17 [3, 19]: 0 mm^3
Average Body Weight (change), Day 11 [3, 20]: -1.2 g
Average Body Weight (change), Day 13 [3, 20]: -0.8 g
Average Body Weight (change), Day 15 [3, 20]: +0.5 g
Tumor Disappearance [3, 20]: 2/4
Average Tumor Size, Day 11 [3, 20]: 49 mm^3
Average Tumor Size, Day 13 [3, 20]: 32 mm^3
Average Tumor Size, Day 15 [3, 20]: 7 mm^3
Average Tumor Size, Day 17 [3, 20]: 6 mm^3
Average Body Weight, Day 7 [3, 19]: 28.5 g
Average Body Weight, Day 7 [3, 20]: 27.6 g
IC50 ([2]; Homo sapiens, CCRF-CEM): 2.1 nM
IC50 [2, 21]: 2.1 nM
IC50 [2, 22]: 2 nM
IC50 ([2]; Homo sapiens, CCRF-CEM, Table 2): 2.3 nM
IC50 [2, 23]: 2.1 nM
IC50 ([2]; Homo sapiens, CCRF-CEM, read-out: IC50 (A), Table 2A, parent cell line): 2.3 nM
IC50 (P388/Adr; Mus musculus, P388/ADR): 326 nM
IC50 (CCRF-CEM/VM1; [21]): 6.6 nM
IC50 (CCRF-CEM/VM1; [22]): 2 nM
IC50 (CCRF-CEM/VM1; Homo sapiens, CCRF-CEM, Table 2, CCR-CEM/VM-1): 3 nM
IC50 (CCRF-CEM/VM1; Homo sapiens, CCRF-CEM, Table 2A, Topo II gene mutated cell line): 3 nM
IC50 (CCRF-CEM/VM1; [23]): 6.6 nM
IC50 (MCF-7; Homo sapiens, MCF7, 72 h): 3.3 nM
IC50 (SK-N-FI; Homo sapiens, SK-N-FI): 130 nM
Average Body Weight (change), Day 9 [4, 24]: -2.2 g
Average Body Weight (change), Day 11 [4, 24]: -2.8 g
Average Body Weight (change), Day 13 [4, 24]: -0.8 g
Average Tumor Size (TC), Day 9 [4, 24]: 0.18 TC
Average Tumor Size (TC), Day 11 [4, 24]: 0.05 TC
Average Tumor Size (TC), Day 13 [4, 24]: 0.06 TC
Tumor Disappearance [4, 24]: 2/4
Lowest Average Tumor Size (T/C) [4, 25]: 0.02 T/C
Tumor Disappearance [4, 25]: 0
Average Body Weight (change), Day 9 [4, 26]: -1.1 g
Average Body Weight (change), Day 11 [4, 26]: -0.9 g
Average Body Weight (change), Day 13 [4, 26]: +0.4 g
Average Tumor Size (TC), Day 9 [4, 26]: 0.34 TC
Average Tumor Size (TC), Day 11 [4, 26]: 0.09 TC
Average Tumor Size (TC), Day 13 [4, 26]: 0.02 TC
Tumor Disappearance [4, 26]: 0/4
Average Body Weight, Day 5 [4, 24]: 28.8 g
Average Body Weight, Day 5 [4, 26]: 26.6 g

Source: US6603023B2 (priority 1996, dated 2003)
